Test results taken from patent US7196110B2, “N-substituted tricyclic 3-aminopyrazoles as inhibitors for the treatment of cell proliferative disorders” (Janssen Phamaceutica N.V., priority 2002, dated 2007).
Where two headings read alike, the source gives them in different places.

Target: T1, PDGF-receptor beta enzyme comprising the tyrosine kinase domain (Homo sapiens, UniProt P09619)
T1 construct: from amino acid 545 to 1106 of GenBank Access NO: AAA36427
Assay: Inhibition of PDGF-receptor kinase activity (cell-free, PLC1 peptide, 33P Flashplate)
Format: biochemical
Settings: for inhibition at 10 µM: compound at 10 uM, read-out: Percent Inhibition @ 10 uM
In short: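 Recombinant kinase domain (aa 545–1106) phosphorylated a biotinylated PLC1 peptide with 5 μM ATP plus 33P-γ-ATP, in Tris pH 8, MgCl2, Na3VO4 and 1 mM DTT, for 60 min at 30 °C. Retained 33P was counted after washing. IC50 is the concentration halving activity versus no-inhibitor reactions.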

[1] = PDGF-R kinase activity, read-out: IC50
[2] = read-out: IC50 (μM) on PDGF-R kinase activity

T1 sequence (P09619 545-1106): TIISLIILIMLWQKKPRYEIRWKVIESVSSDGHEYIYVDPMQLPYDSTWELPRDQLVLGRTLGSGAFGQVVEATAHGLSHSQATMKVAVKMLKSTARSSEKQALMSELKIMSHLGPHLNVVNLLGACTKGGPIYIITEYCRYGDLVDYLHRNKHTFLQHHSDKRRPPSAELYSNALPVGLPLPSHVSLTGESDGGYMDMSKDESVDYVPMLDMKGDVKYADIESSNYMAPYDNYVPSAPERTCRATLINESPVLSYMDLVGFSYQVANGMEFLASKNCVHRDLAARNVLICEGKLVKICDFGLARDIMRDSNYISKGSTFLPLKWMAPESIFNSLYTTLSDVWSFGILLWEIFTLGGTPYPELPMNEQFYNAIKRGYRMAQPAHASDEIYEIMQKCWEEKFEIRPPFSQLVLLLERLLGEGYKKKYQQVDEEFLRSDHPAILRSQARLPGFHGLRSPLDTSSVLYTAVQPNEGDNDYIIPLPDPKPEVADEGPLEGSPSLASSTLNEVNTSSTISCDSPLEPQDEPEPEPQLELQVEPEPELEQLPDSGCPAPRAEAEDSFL

inhibition at 10 µM (PDGF-R kinase activity) [%] | IC50 [1] [µM] | IC50 [2] [µM] | SMILES
102 | 0.0247 | – | COc1cccc(Nc2n[nH]c3c2Cc2c-3cc(OC)c3oc(C)nc23)c1 [Compound 560, (4-Methoxy-2-methyl-6,9-dihydro-3-oxa-1,6,7-triaza-cyclopenta[b]-as-indacen-8-yl)-(3-methoxy-phenyl)-amine]
67 | – | 7.33 | COc1cc2c(cc1OC)-c1c(c(Nc3cccc(F)c3)nn1CCO)C2 [Compound 572, 2-[3-(3-Fluoro-phenylamino)-6,7-dimethoxy-4H-indeno[1,2-c]pyrazol-1-yl]-ethanol]
99 | – | 0.163 | COc1cc2c(c3nc(C)oc13)Cc1c(NCc3ccccc3F)n[nH]c1-2 [Compound 574, (2-Fluoro-benzyl)-(4-methoxy-2-methyl-6,9-dihydro-3-oxa-1,6,7-triaza-cyclopenta[b]-as-indacen-8-yl)-amine]
99.5 | – | 0.00213 | COc1cc2c(cc1OC)-c1n[nH]c(NCc3ccccc3Br)c1C2 [Compound 575, (2-Bromo-benzyl)-(6,7-dimethoxy-2,4-dihydro-indeno[1,2-c]pyrazol-3-yl)-amine]
19 | – | 362 | COc1cc2c(cc1OC)-c1n[nH]c(Nc3cnccc3C(F)(F)F)c1C2 [Compound 577, (6,7-Dimethoxy-2,4-dihydro-indeno[1,2-c]pyrazol-3-yl)-(4-trifluoromethyl-pyridin-3-yl)-amine]
82.5 | – | 1.25 | COc1cc2c(cc1OC)-c1n[nH]c(Nc3ncccc3Br)c1C2 [Compound 582, (3-Bromo-pyridin-2-yl)-(6,7-dimethoxy-2,4-dihydro-indeno[1,2-c]pyrazol-3-yl)-amine]
109 | – | 0.0111 | COc1cc2c(cc1OC)-c1n[nH]c(Nc3cccc(OC(C)C)c3)c1C2 [Compound 584, (6,7-Dimethoxy-2,4-dihydro-indeno[1,2-c]pyrazol-3-yl)-(3-isopropoxy-phenyl)-amine]
103 | – | 0.556 | COc1cc2c(cc1OC)-c1n[nH]c(Nc3cc(C)cc(C)n3)c1C2 [Compound 588, (6,7-Dimethoxy-2,4-dihydro-indeno[1,2-c]pyrazol-3-yl)-(4,6-dimethyl-pyridin-2-yl)-amine]
64 | – | 0.0156 | CCOc1cc2c(cc1OCC)-c1n[nH]c(Nc3cccc(F)c3)c1C2 [Compound 594, (6,7-Diethoxy-2,4-dihydro-indeno[1,2-c]pyrazol-3-yl)-(3-fluoro-phenyl)-amine]
0 | – | 98.4 | CCCCCCCCCCCCCCCNC(=O)n1nc2c(c1Nc1cccc(F)c1)Cc1cc(OC)c(OC)cc1-2 [Compound 598, 3-(3-Fluoro-phenylamino)-6,7-dimethoxy-4H-indeno[1,2-c]pyrazole-2-carboxylic acid pentadecylamide]

Further lines, the compound ahead of its results:

SMILES | inhibition at 10 µM (PDGF-R kinase activity) [%] | IC50 [1] [µM] | IC50 [2] [µM]
COc1cc2c(cc1OC)-c1n[nH]c(Nc3ccccn3)c1C2 [Compound 562, (6,7-Dimethoxy-2,4-dihydro-indeno[1,2-c]pyrazol-3-yl)-pyridin-2-yl-amine] | 93.5 | 0.084 | –
COc1cc2c(cc1OC)-c1n[nH]c(NCc3ccccn3)c1C2 [Compound 563, (6,7-Dimethoxy-2,4-dihydro-indeno[1,2-c]pyrazol-3-yl)-pyridin-2-ylmethyl-amine] | 89 | 1.45 | –
COc1cc2c(cc1OC)-c1n[nH]c(NCc3cccnc3)c1C2 [Compound 564, (6,7-Dimethoxy-2,4-dihydro-indeno[1,2-c]pyrazol-3-yl)-pyridin-3-ylmethyl-amine] | 99.5 | 0.886 | –
COc1cc2c(cc1OC)-c1n[nH]c(Nc3cccc4c3OC(F)(F)O4)c1C2 [Compound 565, (2,2-Difluoro-benzo[1,3]dioxol-4-yl)-(6,7-dimethoxy-2,4-dihydro-indeno[1,2-c]pyrazol-3-yl)-amine] | 41.5 | – | –
COc1cc2c(cc1OC)-c1n[nH]c(N3CCc4ccccc43)c1C2 [Compound 566, 3-(2,3-Dihydro-indol-1-yl)-6,7-dimethoxy-2,4-dihydro-indeno[1,2-c]pyrazole] | 54 | – | –
COc1cc2c(cc1OC)-c1n[nH]c(N3CCc4cc(Br)ccc43)c1C2 [Compound 567, 3-(5-Bromo-2,3-dihydro-indol-1-yl)-6,7-dimethoxy-2,4-dihydro-indeno[1,2-c]pyrazole] | 39.5 | – | –
COc1cc2c(cc1OC)-c1nn(CCO)c(Nc3cccc(F)c3)c1C2 [Compound 573, 2-[3-(3-Fluoro-phenylamino)-6,7-dimethoxy-4H-indeno[1,2-c]pyrazol-2-yl]-ethanol] | 52 | – | –
COc1cc2c(cc1OC)-c1n[nH]c(Nc3ncc(Br)cc3C)c1C2 [Compound 576, (5-Bromo-3-methyl-pyridin-2-yl)-(6,7-dimethoxy-2,4-dihydro-indeno[1,2-c]pyrazol-3-yl)-amine] | 18 | – | 33.3
CNC(=O)n1nc2c(c1Nc1cccc(F)c1)Cc1cc(OC)c(OC)cc1-2 [Compound 579, 3-(3-Fluoro-phenylamino)-6,7-dimethoxy-4H-indeno[1,2-c]pyrazole-2-carboxylic acid methylamide] | 28 | – | –
CNC(=S)n1nc2c(c1Nc1cccc(F)c1)Cc1cc(OC)c(OC)cc1-2 [Compound 580, 3-(3-Fluoro-phenylamino)-6,7-dimethoxy-4H-indeno[1,2-c]pyrazole-2-carbothioic acid methylamide] | 93 | – | 0.126
CNC(=S)n1nc(Nc2cccc(F)c2)c2c1-c1cc(OC)c(OC)cc1C2 [Compound 581, 3-(3-Fluoro-phenylamino)-6,7-dimethoxy-4H-indeno[1,2-c]pyrazole-1-carbothioic acid methylamide] | 90.5 | – | 1.14
COc1cc2c(cc1OC)-c1n[nH]c(Nc3ccc(Br)cn3)c1C2 [Compound 583, (5-Bromo-pyridin-2-yl)-(6,7-dimethoxy-2,4-dihydro-indeno[1,2-c]pyrazol-3-yl)-amine] | 82 | – | 1.1
COc1cc2c(cc1OC)-c1n[nH]c(Nc3ncccc3C)c1C2 [Compound 587, (6,7-Dimethoxy-2,4-dihydro-indeno[1,2-c]pyrazol-3-yl)-(3-methyl-pyridin-2-yl)-amine] | 86 | – | 1.7
COc1cc2c(cc1OC)-c1n[nH]c(N(c3cccc(F)c3)[C@@H]3O[C@H](C(=O)O)[C@@H](O)[C@H](O)[C@H]3O)c1C2 [Compound 591, 6-[(6,7-Dimethoxy-2,4-dihydro-indeno[1,2-c]pyrazol-3-yl)-(3-fluoro-phenyl)-amino]-3,4,5-trihydroxy-tetrahydro-pyran-2-carboxylic acid] | 96 | – | 0.662
COc1cc2c(cc1OC)-c1n[nH]c(Nc3cccc(C(=O)NCCOCCOCCOCCNC(=O)CCCCC4SCC5NC(=O)NC54)c3)c1C2 (stereo not drawn) [Compound 601, 3-(6,7-Dimethoxy-2,4-dihydro-indeno[1,2-c]pyrazol-3-ylamino)-N-{2-[2-(2-{2-[5-(2-oxo-hexahydro-thieno[3,4-d]imidazol-6-yl)-pentanoylamino]-ethoxy}-ethoxy)-ethoxy]-ethyl}-benzamide] | 89 | – | 2.29
